pIC50: −log10 of the molar value. Activity calls are given as the source filed them.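 The calls were made as follows: active = IC50 dose giving half inhibition of the KLF5 reporter of 10 micromolar or lower; inactive = IC50 above 10 micromolar.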

This experiment relates to DLD-1 KLF5 promoter-luciferase reporter, luminescence. Kind of experiment: KLF5 promoter reporter inhibitors, dose response, luminescence, DLD-1 cells, luciferase reporter (AID 1973).
Take `CC(C)(C)C(=O)Nc1cc2nn(-c3ccccc3)nc2cc1Cl`: the pIC50 is 7.01.

On to `CC(C)(C)c1ccc(C(=O)O/N=C(\N)c2ccccn2)cc1`, for which the pIC50 was 6.57.

`COc1ccccc1N1CCN(Cc2cc(Br)c(O)c3ncccc23)CC1`: the pIC50 was 5.57.

`CCCc1ccc(-c2ccc(/C=C/C(=O)O)cc2)nc1`: the pIC50 is 6.38.

For `CC(C)(C)C(=O)Nc1ccc(NC(=O)c2ccco2)nc1`, the pIC50 is 6.02.

Turning to `Cc1ccc(C(=O)Nc2nc3ccccc3[nH]2)cc1`, the negative-log IC50 (pIC50) was 5.45.

`CC(C)CC(NC(=O)CCCNC(=O)CCC(=O)OC1O[C@H]2OC3(C)CC[C@H]4[C@H](C)CCC(C1C)C24OO3)C(=O)O` (some centres not stated): the pIC50 is 6.30.

Regarding `CCOc1cccc(/C=N/NC(=O)c2ccc3c(c2)OCCO3)c1O`, the pIC50 is 5.78.

As for `O=C(NC1=NCCS1)C1COc2ccccc2O1` (configuration not stated), the pIC50 is 5.58.

Turning to `COC(=O)c1ccc2nc(Nc3nc4ccc(F)cc4s3)sc2c1`, the pIC50 was 8.16.

In the case of `Cc1ccc(-c2nnc(SCC(=O)Nc3ccccc3F)o2)cc1`, the pIC50 is 5.60.

As for `Cc1ccccc1OCC(=O)Nc1cccc(C(=O)O)c1`, the pIC50 is 5.90.

With `O=C(CN1C(=O)c2ccccc2S1(=O)=O)c1ccc(Cl)cc1Cl`, the pIC50 is 5.77.

Take `CCOc1cc(Br)cc(/C=N/NC(=O)c2cccnc2)c1O`: the pIC50 was 5.78.

Turning to `COc1cccc(/C=N/NC(=O)c2cc3c(OC)ccc(OC)c3[nH]2)c1O`, the pIC50 was 5.61.

Consider `c1ccc(-c2ccc(-c3nc(-c4ccccn4)no3)cc2)cc1`, for which the pIC50 was 6.44.

With `COC(=O)c1nn(-c2ccc3c(c2)CCN3C(C)=O)cc1O`, the pIC50 is 5.69.

Consider `COC(=O)c1c(N)sc(C(=O)NCCc2ccccc2)c1C`, for which the pIC50 was 5.71.

On to `O=C(O)c1cccc(COc2ccc3c(c2)CCC3)c1`, for which the pIC50 is 6.16.

For the compound `CCc1ccn2cc(-c3cc(-c4ccccc4)no3)nc2c1`, the pIC50 was 6.18.

As for `COc1ccc(OC)c2[nH]c(C(=O)N/N=C/c3ccccc3O)cc12`, the pIC50 was 5.78.

`CCc1ccc(C(=O)Nc2nc3ccccc3[nH]2)cc1`: the pIC50 was 5.55.

`Cc1ccc2[nH]c(C(=O)N/N=C/c3ccccc3O)c(C)c2c1`: the IC50 was > 39.8 µM (inactive).

In the case of `CCc1ccc(NC(=O)c2cnn3ccccc23)cc1`, the pIC50 is 5.73.

Regarding `COc1cc(N=Cc2c(O)[nH]c3ccccc23)cc(OC)c1OC`, the pIC50 was 5.99.

Consider `CC(C)(C)c1ccc(-c2noc(CCC(=O)NCC3CCCO3)n2)cc1` (configuration not stated), for which the pIC50 was 5.74.

As to `Nc1ccc(-c2nc3ccc(C(=O)O)cc3s2)cc1`, the pIC50 was 6.42.

In the case of `Cc1ccc(C(=O)N/N=C/c2c(O)ccc3ccccc23)cn1`, the pIC50 was 5.83.

With `O=C(Nc1nccs1)c1cc2c(s1)CCCCC2`, the pIC50 is 5.54.

Consider `O=C(c1cc(-c2ccccc2Cl)on1)N1CCCC1`, for which the pIC50 is 5.46.

As to `COc1ccc(N/N=C/c2c(C(=O)O)ccc3ccccc23)cc1`, the pIC50 was 5.77.

On to `COc1cccc(/C=N/Nc2nccnc2Cl)c1O`, for which the pIC50 was 5.68.

`COc1cccc(/C=N/Nc2ccc([N+](=O)[O-])cn2)c1O`: the pIC50 was 5.39.

In the case of `CC(C)(C)c1ccc(C(=O)Nc2sc3c(c2C(=O)O)CCC3)cc1`, the pIC50 is 5.94.

For the compound `CC(C)(C)c1ccc(-c2noc(CCC(N)=O)n2)cc1`, the pIC50 is 6.87.

In the case of `COc1cccc(/C=N/Nc2ccc(C(=O)O)cc2)c1O`, the negative logarithm of the IC50 (pIC50) is 7.37.

As for `c1ccc(-c2noc(-c3ccc4ccccc4c3)n2)nc1`, the pIC50 was 6.10.

For the compound `COc1ccc(OC)c(N/C=C/C(=O)c2ccccc2)c1`, the pIC50 is 5.77.

Take `O=C(CSc1n[nH]c(-c2ccccn2)n1)Nc1ccc(Cl)cc1`: the pIC50 was 5.36.

Regarding `O=C1C(Nc2ccccc2)=C(N2CCCCC2)C(=O)c2ccccc21`, the IC50 was 13.4 µM (inactive).

As to `O=C(N/N=C/c1c(O)ccc2ccccc12)c1cccnc1`, the pIC50 is 5.79.

For the compound `Nc1c(C(=O)Nc2cccc(C(=O)O)c2)sc2nc3c(cc12)CCCC3`, the pIC50 is 5.83.

In general, pIC50 refers to −log10 of the IC50, conventionally taken in molar units. Usually IC50 stands for the concentration that inhibits the measured activity by half.

For the origin of these results see PubChem BioAssay AID1973 (The Scripps Research Institute Molecular Screening Center, 2009).
